Data set [1] addresses T1, Epidermal growth factor receptor (Homo sapiens, UniProt P00533, L858R/T790M). As to the kind of experiment: Inhibition of EGFR L858R/T790M double mutant (unknown origin).
The target in data set [2] is T2, Epidermal growth factor receptor (Homo sapiens, UniProt P00533, C797S/L858R/T790M). The experiment in a line: Inhibition of EGFR L858R/T790M/C797S triple mutant (unknown origin).
Data set [3] can be described thus: Inhibition of p-EGFR Del19/T790M/C797S triple mutant in mouse BaF3 cells. It is filed as cell-based.
In data set [4] the test system is BaF3. As to the kind of experiment: Antiproliferative against in mouse BaF3 EFGR Del19/T790M/C797S cell. Format: functional, cell-based.
In data set [5] the target is Epidermal growth factor receptor (Homo sapiens, UniProt P00533). The experiment in a line: Inhibition of wild type EGFR (unknown origin).
Sequence of Epidermal growth factor receptor (Homo sapiens, UniProt P00533) (P00533 whole entry): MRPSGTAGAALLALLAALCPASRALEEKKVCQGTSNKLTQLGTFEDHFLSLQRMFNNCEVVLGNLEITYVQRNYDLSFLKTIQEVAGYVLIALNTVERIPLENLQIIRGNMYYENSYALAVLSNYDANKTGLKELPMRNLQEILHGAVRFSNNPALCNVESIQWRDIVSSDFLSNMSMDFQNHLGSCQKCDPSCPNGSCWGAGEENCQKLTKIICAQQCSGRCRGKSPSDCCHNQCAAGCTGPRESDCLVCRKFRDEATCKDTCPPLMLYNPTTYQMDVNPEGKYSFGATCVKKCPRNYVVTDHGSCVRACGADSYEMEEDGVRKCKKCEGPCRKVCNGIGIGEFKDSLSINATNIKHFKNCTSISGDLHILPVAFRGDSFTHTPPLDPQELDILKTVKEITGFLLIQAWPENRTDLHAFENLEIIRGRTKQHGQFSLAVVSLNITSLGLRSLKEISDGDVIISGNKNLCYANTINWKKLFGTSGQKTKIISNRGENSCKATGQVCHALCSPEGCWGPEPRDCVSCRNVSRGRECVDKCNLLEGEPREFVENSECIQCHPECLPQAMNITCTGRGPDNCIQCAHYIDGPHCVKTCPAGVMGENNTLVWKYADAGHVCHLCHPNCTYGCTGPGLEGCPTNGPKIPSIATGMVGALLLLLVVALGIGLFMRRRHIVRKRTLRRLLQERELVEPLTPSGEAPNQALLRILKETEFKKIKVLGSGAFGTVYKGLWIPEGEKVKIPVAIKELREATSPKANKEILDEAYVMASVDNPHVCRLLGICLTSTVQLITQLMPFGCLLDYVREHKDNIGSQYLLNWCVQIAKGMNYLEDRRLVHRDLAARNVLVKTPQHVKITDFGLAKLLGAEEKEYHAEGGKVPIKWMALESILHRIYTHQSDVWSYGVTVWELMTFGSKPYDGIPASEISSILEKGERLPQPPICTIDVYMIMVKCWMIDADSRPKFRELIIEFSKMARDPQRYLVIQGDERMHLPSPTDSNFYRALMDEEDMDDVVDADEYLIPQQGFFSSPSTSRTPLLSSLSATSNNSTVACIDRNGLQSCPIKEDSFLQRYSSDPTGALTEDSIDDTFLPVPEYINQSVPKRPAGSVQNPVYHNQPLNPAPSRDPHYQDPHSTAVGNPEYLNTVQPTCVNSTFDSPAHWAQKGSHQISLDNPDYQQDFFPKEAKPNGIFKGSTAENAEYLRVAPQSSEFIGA
Data set [6] in a line: Antiproliferative against in mouse Ba/F3 EGFR-Del19/T790M/C797S cells. Format: functional, cell-based.
The target in data set [7] is Epidermal growth factor receptor (Homo sapiens, UniProt P00533, C797S/EX19DEL/T790M). As to the kind of experiment: Inhibition of EGFR Del19/T790M/C797S triple mutant (unknown origin).
Sequence of Epidermal growth factor receptor (Homo sapiens, UniProt P00533, C797S/EX19DEL/T790M) (P00533 whole entry, looked up, stated change not applied): as the sequence (P00533 whole entry) above
Data set [8] can be described thus: Antiproliferative against in mouse Ba/F3 EGFR-T790M/C797S/L858R cells. Format: functional, cell-based.
The nature of data set [9]: Oral bioavailability in rat relative to control. It is filed as ADME, organism-based. The note with it: in vivo.
A short description of data set [10]: Oral bioavailability in mouse relative to control. It is filed as ADME, organism-based. The note with it: in vivo.
Data set [11] addresses T2, Epidermal growth factor receptor. As to the kind of experiment: Inhibition of EGFR L858R/T790M/C797S triple mutant (unknown origin) in human NCI-H1975 cell. Format: cell-based.
The target of data set [12] is T1, Epidermal growth factor receptor. As to the kind of experiment: Inhibition of EGFR L858R/T790M double mutant (unknown origin) in human NCI-H1975 cell. It is filed as cell-based.
Data set [13] deals with T2, Epidermal growth factor receptor. The experiment in a line: Inhibition of EGFR L858R/T790M/C797S triple mutant (unknown origin) by HTRF method. For orientation: In TR-FRET formats the signal depends on donor and acceptor labels being close together.
Data set [14] is described as follows: Half life in Ba/F3 EGFR cells xenografted nude mouse liver microsomes. It is filed as ADME.
In data set [15] the target is T2, Epidermal growth factor receptor. The experiment in a line: Inhibition of EGFR L858R/T790M/C797S triple mutant (unknown origin) expressed in mouse BaF3 cells. It is filed as cell-based.
A short description of data set [16]: Inhibition of EGFR L858R/T790M/C797S triple mutant (unknown origin) in mouse BaF3 cells. Format: cell-based.
For another data set, the species on record is Homo sapiens. The experiment in a line: Selectivity ratio of IC50 for EGFR Del19/T790M/C797S triple mutant (unknown origin) to wild type EGFR (unknown origin).
The next data set has as its system NCI-H1975. The experiment in a line: Growth inhibition of human NCI-H1975 cells. It is filed as functional, cell-based.
The target of data set [17] is Epidermal growth factor receptor (Homo sapiens, UniProt P00533, L858R). As to the kind of experiment: Inhibition of EGFR L858R mutant (unknown origin).
Data set [18] deals with BaF3. The experiment in a line: Antiproliferative against in mouse BaF3 cells harbouring Del19/T790M/C797S triple mutant at 100 nM relative to control. Format: functional.
Data set [19] has as its system BaF3. As to the kind of experiment: cells. The note with it: Mus musculus.

T2 sequence (P00533 25-1210 T790M/C797S/L858R limits assumed): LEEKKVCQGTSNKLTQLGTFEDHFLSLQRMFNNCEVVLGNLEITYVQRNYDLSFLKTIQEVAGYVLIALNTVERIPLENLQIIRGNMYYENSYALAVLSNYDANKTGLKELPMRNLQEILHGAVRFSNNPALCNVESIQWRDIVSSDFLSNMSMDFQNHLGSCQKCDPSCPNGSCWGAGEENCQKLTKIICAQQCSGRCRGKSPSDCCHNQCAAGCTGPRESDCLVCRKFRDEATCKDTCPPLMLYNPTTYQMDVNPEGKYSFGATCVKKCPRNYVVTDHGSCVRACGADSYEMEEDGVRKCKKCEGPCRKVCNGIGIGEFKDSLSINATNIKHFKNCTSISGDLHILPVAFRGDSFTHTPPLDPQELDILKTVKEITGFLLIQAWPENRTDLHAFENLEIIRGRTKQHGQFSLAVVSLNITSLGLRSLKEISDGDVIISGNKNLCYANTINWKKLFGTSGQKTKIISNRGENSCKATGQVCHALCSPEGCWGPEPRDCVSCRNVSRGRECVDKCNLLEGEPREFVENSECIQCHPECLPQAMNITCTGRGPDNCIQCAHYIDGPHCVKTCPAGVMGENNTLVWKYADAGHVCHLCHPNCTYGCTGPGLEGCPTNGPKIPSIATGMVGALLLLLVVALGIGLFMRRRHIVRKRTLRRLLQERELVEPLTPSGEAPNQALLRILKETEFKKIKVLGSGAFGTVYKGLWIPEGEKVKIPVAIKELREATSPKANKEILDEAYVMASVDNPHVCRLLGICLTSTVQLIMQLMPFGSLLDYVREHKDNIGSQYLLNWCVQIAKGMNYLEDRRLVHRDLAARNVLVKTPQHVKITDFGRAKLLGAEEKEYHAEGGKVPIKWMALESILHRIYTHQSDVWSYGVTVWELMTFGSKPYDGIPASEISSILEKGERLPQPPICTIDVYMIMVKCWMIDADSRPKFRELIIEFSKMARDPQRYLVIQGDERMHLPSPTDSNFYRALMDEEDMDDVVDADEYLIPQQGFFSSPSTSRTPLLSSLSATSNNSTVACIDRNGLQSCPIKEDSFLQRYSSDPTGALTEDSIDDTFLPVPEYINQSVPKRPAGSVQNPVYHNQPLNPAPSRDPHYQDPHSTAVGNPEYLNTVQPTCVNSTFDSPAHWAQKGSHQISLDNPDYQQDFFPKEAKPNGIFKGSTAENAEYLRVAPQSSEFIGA
T1 sequence (P00533 25-1210 T790M/L858R limits assumed): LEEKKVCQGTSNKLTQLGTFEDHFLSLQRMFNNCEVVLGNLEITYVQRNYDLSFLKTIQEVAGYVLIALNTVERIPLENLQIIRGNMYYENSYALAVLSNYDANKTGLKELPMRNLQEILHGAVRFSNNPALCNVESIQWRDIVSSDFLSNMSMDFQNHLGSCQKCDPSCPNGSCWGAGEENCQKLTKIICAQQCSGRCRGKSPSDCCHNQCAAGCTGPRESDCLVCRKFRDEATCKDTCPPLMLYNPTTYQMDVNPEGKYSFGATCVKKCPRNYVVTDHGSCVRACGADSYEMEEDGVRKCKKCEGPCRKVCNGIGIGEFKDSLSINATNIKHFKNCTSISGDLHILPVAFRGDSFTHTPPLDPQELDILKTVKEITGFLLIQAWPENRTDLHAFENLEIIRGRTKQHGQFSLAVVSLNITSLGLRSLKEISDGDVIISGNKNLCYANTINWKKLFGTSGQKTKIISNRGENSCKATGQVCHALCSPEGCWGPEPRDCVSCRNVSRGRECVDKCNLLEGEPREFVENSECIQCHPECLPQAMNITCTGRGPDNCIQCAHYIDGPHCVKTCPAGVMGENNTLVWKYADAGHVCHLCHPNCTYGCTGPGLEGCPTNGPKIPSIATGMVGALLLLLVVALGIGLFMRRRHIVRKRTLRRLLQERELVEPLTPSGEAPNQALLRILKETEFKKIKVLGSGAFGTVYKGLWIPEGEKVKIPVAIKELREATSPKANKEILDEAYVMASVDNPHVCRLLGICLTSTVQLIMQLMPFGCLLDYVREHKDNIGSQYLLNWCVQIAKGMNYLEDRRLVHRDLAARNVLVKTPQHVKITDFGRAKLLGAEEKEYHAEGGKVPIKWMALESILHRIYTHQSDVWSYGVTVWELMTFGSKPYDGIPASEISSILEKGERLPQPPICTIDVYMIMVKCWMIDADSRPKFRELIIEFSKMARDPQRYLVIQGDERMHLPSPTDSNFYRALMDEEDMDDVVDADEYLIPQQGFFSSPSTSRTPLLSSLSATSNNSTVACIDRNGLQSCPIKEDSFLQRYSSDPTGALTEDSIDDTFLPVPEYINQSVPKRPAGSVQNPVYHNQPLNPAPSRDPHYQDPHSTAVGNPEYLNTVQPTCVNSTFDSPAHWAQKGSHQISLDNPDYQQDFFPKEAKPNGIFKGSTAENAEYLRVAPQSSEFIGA

The term IC50 denotes the concentration at which inhibition is half-maximal. Read a high IC50 as lower potency. In turn, `O=C(Nc1nccs1)C(c1ccccc1)N1Cc2ccc(-c3ccc4[nH]ccc4c3)cc2C1=O` (configuration not stated) had an IC50 in data set [1] of 15 nM. In data set [2], `CCC(=O)N[C@H]1CC[C@H](n2c(=O)c(-c3ccccc3Cl)cc3ccc(Nc4ccc(N5CCN(C)CC5)c(C)c4)cc32)CC1` displayed a half-inhibitory concentration (IC50) of 38.1 nM. Consider `CC(C)(O)Cn1/c(=N/C(=O)c2cc(F)cc(-c3cccnc3)c2)[nH]c2ccccc21`, for which the figures for the half-maximal inhibitory concentration (IC50) (in data set [3]; with BaF3 [4]) were 790 nM and 250 nM, respectively. `COC(=O)c1ccc(O)c(-c2nc(NCc3cccnc3)c3ccccc3n2)c1` came in with an IC50 in data set [5] of at least 50000 nM.

`Cn1cc(-c2cc(C(=O)/N=c3\[nH]c4ccccc4n3[C@H]3CC[C@H](O)CC3)ccn2)cn1`: the IC50 in [6] came to 12 nM; in data set [2], 48.2 nM; in data set [5] it was 540 nM; in [7], 12 nM; in data set [8], 48.2 nM. Consider `Cc1cc(Nc2ncc(Cl)c(Nc3ccccc3P(C)(C)=O)n2)ccc1N1CCC2(CC1)CN(C)C2`, for which the half-maximal inhibitory concentration (IC50) in data set [6] and in [3] was at most 100 nM each time. For the molecule `Oc1ccc(-c2nc(-c3ccnc4[nH]c(-c5ccccc5)cc34)c(-c3ccc(F)cc3)[nH]2)cc1`, in data set [5], the midpoint of inhibition, the IC50, lay at 1000 nM.

The bioavailability is dose-corrected exposure relative to a reference, in per cent. Lower therefore signals little systemic uptake. Consider `N#Cc1ccc(O)c(-c2nc(NCc3ncccn3)c3ccccc3n2)c1`, for which the bioavailability in data set [9] and in data set [10] was 18.6% in each case. In addition, the 50% inhibitory concentration (IC50) came to 1200 nM in [11], 3300 nM in data set [12] and 630 nM in data set [13]. In data set [5], `OCCc1nc(-c2ccc(F)cc2)c(-c2ccnc3[nH]c(-c4ccccc4)cc23)[nH]1` showed a concentration for half-maximal inhibition (IC50) of at most 0.3 nM. The molecule `CN1CCN(c2ccc(Nc3ncc4nc(Nc5ccccc5)n([C@H]5CCN(S(=O)(=O)C6CC6)C5)c4n3)cc2)CC1` showed a half-inhibitory concentration (IC50) in data set [2] of 18 nM. Molecule `COc1cc2c(Nc3ccc(NC(=O)C(c4cc(F)ccc4F)N4Cc5ccccc5C4=O)cc3F)ncnc2cc1OCC1CCN(C)CC1` (configuration not stated) returned an IC50 in data set [6] of 3.54 nM. As a reminder, the half-life is the time needed for the level to fall by half in the phase considered. Turning to `CCc1cc(Nc2ncc(Br)c(Nc3ccc4nccnc4c3P(C)(C)=O)n2)c(OC)cc1N1CCC(N2CCN(C)CC2)CC1`, the figures for the IC50 in [6] and in data set [7] were 9 nM and 0.212 nM, respectively. The molecule further showed a half-life in [14] of 20.5 h.

Turning to `CCC(=O)N1CCC[C@@H](N2CC(c3cccc(F)c3Cl)=C(C)c3cnc(Nc4ccc(N5CCN(C)CC5)c(C)c4)nc32)C1`, the concentration for half-maximal inhibition (IC50) in data set [2] is 27.5 nM; in data set [5] it was at least 1000 nM; in [15], 662 nM.

For the molecule `C=CC(=O)Nc1cc(Nc2ncc(C(=O)OC(C)C)c(-c3cc4ccccc4n3C3CC3)n2)c(OCC(F)(F)F)nc1N(C)CCN(C)C`, the 50% inhibitory concentration (IC50) in [6] amounted to 10 nM.

Turning to `OCCCCc1nc(-c2ccc(F)cc2)c(-c2ccnc3[nH]c(-c4ccccc4)cc23)[nH]1`, the IC50 in [5] is at most 0.3 nM. `COc1cc(N(C)CCN(C)C)ccc1Nc1nccc(-c2cn(CCCO)c3ccccc23)n1` registered a half-inhibitory concentration (IC50) in [2] of 8.5 nM.

Take `O=C1c2cc(F)ccc2Nc2ccccc2N1Cc1ccccc1`: the IC50 in [2] was 52 nM; in [5], over 1000 nM. Take `CN1CC2(CCN(c3ccc(Nc4ncc(Cl)c(Nc5ccccc5P(C)(C)=O)n4)cc3Br)CC2)C1`: the IC50 in data set [6] and in data set [3] was at most 100 nM each time. Molecule `CCC(=O)N[C@H]1CC[C@@H](N2C(=O)N(c3ccccc3Cl)Cc3cnc(Nc4ccc(N5CCN(C)CC5)c(C)c4)nc32)CC1` returned a 50% inhibitory concentration (IC50) in data set [16] of 210 nM.

Turning to `C=CC(=O)Nc1cc(Nc2ncc(C(=O)OC(C)C)c(-c3cc4ccccc4n3C)n2)c(OCC(F)(F)F)nc1N(C)CCN(C)C`, half-maximal inhibition in data set [6] (IC50) required 9 nM. On to `CSc1nc(-c2ccc(F)cc2)c(-c2ccnc3[nH]c(-c4ccccc4)cc23)[nH]1`, for which the IC50 in data set [5] stood at 287 nM. On to `N#Cc1ccc(O)c(-c2nc(NCc3cnccn3)c3ccccc3n2)c1`, for which the 50% inhibitory concentration (IC50) in [5] is at least 50000 nM; in data set [7], 17.9 nM. Also, in the data set filed under Homo sapiens, the Ratio IC50 was found to be 1000.

As to `CN(C)C1CCN(c2ccc(Nc3cc4c(N5CCC(CO)CC5)nc(Nc5ccc(F)cc5)nc4cn3)nc2)CC1`, the figures for the IC50 (in [2]; in the data set with NCI-H1975) were 662 nM and 400 nM, respectively. Turning to `CN(C)CCOc1ccc(Nc2ncc3nc(Sc4ccc(F)cc4)n(C4CCOCC4)c3n2)cc1`, the IC50 in [17] was determined as 1.2 nM. `CC(=O)N[C@H]1CC[C@H](n2c(=O)c(-c3ccccc3Cl)cc3ccc(Nc4ccc(N5CCN(C)CC5)c(C)c4)cc32)CC1` came in with a half-maximal inhibitory concentration (IC50) in data set [2] of 47.8 nM. Molecule `O=C(Nc1nccs1)C(c1ncn2c1CCC2)N1Cc2c(F)cc(C#Cc3ccc(CN4CCC(CO)CC4)cc3)cc2C1=O` (configuration not stated) yielded an IC50 in [2] of 5 nM.

In the case of `Oc1ccccc1-c1nc(NCc2cccnc2)c2ccccc2n1`, the Ratio IC50 in the data set filed under Homo sapiens was determined as 163. Consider `C=CC(=O)Nc1cc(Nc2nccc(-c3cn(C)c4ccccc34)n2)c(OC)cc1N(C)CCN(C)C` [OSIMERTINIB], for which the concentration for half-maximal inhibition (IC50) stood at 730 nM in data set [6] and 1080 nM in [8]. As for `CC(C)(C)n1cc(-c2cncc3ccccc23)c2c(N)ncnc21`, the IC50 was determined as 53 nM in data set [2], 1620 nM in [5] and 5420 nM in [15].

`COc1cc(N2CCC(N3CCN(C)CC3)CC2)c(C)cc1Nc1ncc(Br)c(Nc2ccc3nccnc3c2P(C)(C)=O)n1` had a half-life in [14] of 10 h. Turning to `N#Cc1ccc(O)c(-c2nc(NCc3cccnc3)c3ccccc3n2)c1`, the concentration for half-maximal inhibition (IC50) worked out at 50000 nM in data set [5] and 23 nM in data set [7].

Take `C=C(C)c1cnc(Nc2ccc(N3CCC4(CC3)CN(C)C4)cc2)nc1Nc1ccccc1P(C)(C)=O`: the IC50 in [6] and in [3] was at most 100 nM each time. As to `Cc1cc2cc(n1)-c1cnn(C)c1OCCC[C@@H](C)CN1/C(=N/C2=O)Nc2ccc(CN3CCN(C)CC3)cc21`, in data set [3], the IC50 amounted to 0.6 nM. The molecule `OCCCc1nc(-c2ccc(F)cc2)c(-c2ccnc3[nH]c(-c4ccccc4)cc23)[nH]1` registered a concentration for half-maximal inhibition (IC50) in data set [5] of at most 0.2 nM. As for `CN1CCN(c2ccc(Nc3ncc4nc(Nc5ccc(F)cc5)n([C@H]5CCN(S(=O)(=O)C6CC6)C5)c4n3)cc2)CC1`, in data set [2], the IC50 turned out to be 22 nM. What is called inhibition is the percentage by which the read-out fell short of the control. Molecule `COc1cc(N2CCC(N3CCN(C)CC3)CC2)ccc1Nc1ncc(Cl)c(Nc2ccccc2P(C)(C)=O)n1` [BRIGATINIB] showed an inhibition at 0.1 µM in the data set with BaF3 [18] of 50%. In addition, the midpoint of inhibition with BaF3 [19], the IC50, lay at 30 nM. `CN1CCN(c2ccc(Nc3ncc4nc(Nc5ccccc5)n([C@@H]5CCN(S(=O)(=O)C6CC6)C5)c4n3)cc2)CC1` yielded an IC50 in data set [2] of 40 nM.

For the origin of these results see ChEMBL document CHEMBL5143505, “Emerging Approaches to Overcome Acquired Drug Resistance Obstacles to Osimertinib in Non-Small-Cell Lung Cancer” (J Med Chem, 2022).
